# Read-outs that look alike come from different tables or passages of the source.
# Test system: FSK-4 cells
# Assay: Assay (IV): Glucose utilisation in FSK-4 cells
# Type: cell-based
# Settings: for EC50: read-out: FSK4 EC50; for Emax: read-out: FSK4 Emax (% of FCCP)
# Experimental: Assay (IV): Glucose Utilisation in FSK-4 Cells
# The assay measures indirectly the activity of the respiratory chain in FSK-4 cells by using D-(6-^3H(N))-glucose. The ^3H-proton will first be released in the TCA cyclus and transported to the respiratory chain where it will be incorporated into water. The water is thereafter separated from the D-(6-^3H(N))-glucose by evaporation. Finally, the radioactivity in the water is determined using a Topcounter.
# FSK-4 cells obtained from ATCC (Maryland, USA), are cultured in growth medium (McCoy's medium with the following addition 100 units/ml penicillin and streptomycin and 10% FCS (fetal calf serum)) at 37° C. and 5% CO2. All media are obtained by Gibco (Life Technologies, Maryland, USA) where not otherwise mentioned.
# At day zero the cells are harvested using trypsin-EDTA and washed in assay medium (MEM medium with the following addition 1× non-essential amino acids (M7145, 2 mM glutamin, 100 units/ml pencillin and streptomycin, 0.0075% sodium bicarbonate, 1 mM sodium pyrovate and 2% horse serum) using centrifugation. The cells are plated into single StripPlates wells (Corning B.V.Life Sciences, The Netherlands) that are placed into 24-well plates (Corning B.V.Life Sciences, The Netherlands) with a concentration of 1,5×10^4 cells/100 μl assay medium/well. The cells are then incubated at 37° C. and 5% CO2 overnight.
# The next day the compounds to be tested are diluted to different concentrations in DMSO (Sigma, Missouri, USA) to 100 times final concentration. They are then diluted to a final concentration in assay medium containing 10 μCi/ml D-(6-^3H(N))-glucose (PerkinElmer Life Sciences Inc., Boston, USA). The medium is removed from the cells and 200 μl of the compound dilutions are added in duplicates. The cells are then incubated for another 24 hours at 37° C. and 5% CO2. Finally the cells are lysed by adding 50 μl 10% TCA (tri-chloroacetatic acid). 300 μl of sterile water is then added to the 24-wells that surrounds the StripPlate wells. The plate is sealed with Top-seal-tape (Packard, PerkinElmer Life Sciences Inc., Boston, USA) and the plate is incubated in a heating cupboard at 50° C. to equilibrium the radioactive water formed in the respiratory chain into the water in the 24-well plate by evaporate. The plates incubate for 8 hours where the heating cupboard is turned off. The top seal is removed when the samples have reached room temperature. One ml scintillation liquid (Packard Microscient, PerkinElmer Life Sciences Inc., Boston, USA) is added to all the samples and the radioactivity is determined using a Topcounter (Packard, PerkinElmer Life Sciences Inc., Boston, USA). Non-specific activity is determined by evaporating 200 μl of the dilution medium containing the D-(6-^3H(N))-glucose into 300 μl sterile water, and total radioactivity is determined by counting 5 μl assay medium with 10 μCi/ml D-(6-^3H(N))-glucose.
# All calculations are done using GraphPad Prism 3.0 (GraphPad software, Inc.) From concentration-response curves the half maximal concentration (EC50) and maximal efficacy (Emax) are calculated using equation 1.
# Y=Bottom+(Top−Bottom)/(1+10^((LogEc50-X)*slope))
# X is the logarithm of the molar concentration of the test compound.
# Y is the degree of stimulation caused by the compound measured as percentage of the basal stimulation.
# The calculated EC50 value is then used to determine the concentrations used in a study where the Hill slope is calculated.
# From the double logarithmic plot of the increase in glucose utilisation and the compound concentration the Hill slope is calculated accordingly to equation 2.
# It is presumed, that the maximal increase in the glucose utilisation (as measured in the FSK-4 glucose utilisation assay) is limited by the capacity of the metabolism.
# [1] = FSK-4 cells, glucose utilisation, 24 hours incubation
# [2] = FSK-4 cells, maximal efficacy relative to FCCP
EC50 [1],SMILES,Emax [2],further results
5000 nM,"N#CC(C#N)=Cc1c[nH]c2ccc([N+](=O)[O-])cc12 [Example 35, 2-(5-Nitro-1H-Indol-3-Ylmethylene)-Malononitrile]",50%,
800 nM,"CC(C)(C)c1cc(/C=C(\C#N)S(=O)(=O)c2ccc(Cl)cc2)cc(C(C)(C)C)c1O [Example 85, (E)-2-(4-Chloro-Benzenesulfonyl)-3-(3,5-Di-Tert-Butyl-4-Hydroxy-Phenyl)-Acrylonitrile]",,
1000 nM,"CC(C)(C)c1cc(/C=C(\C#N)S(=O)(=O)c2ccc(F)cc2)cc(C(C)(C)C)c1O [Example 86, (E)-3-(3,5-Di-Tert-Butyl-4-Hydroxy-Phenyl)-2-(4-Fluoro-Benzenesulfonyl)-Acrylonitrile]",,
700 nM,"CC(C)(C)c1cc(/C=C(\C#N)S(=O)(=O)c2ccccc2)cc(C(C)(C)C)c1O [Example 87, (E)-2-Benzenesulfonyl-3-(3,5-Di-Tert-Butyl-4-Hydroxy-Phenyl)-Acrylonitrile]",,
1000 nM,"CC(C)(C)c1cc(/C=C(\C#N)S(=O)(=O)c2ccc(Br)cc2)cc(C(C)(C)C)c1O [Example 92, 2-(4-Bromo-Benzenesulfonyl)-3-(3,5-Di-Tert-Butyl-4-Hydroxy-Phenyl)-Acrylonitrile]",,
100 nM,"CC(C)(C)c1cc(Br)cc(C(=O)Nc2ccc(C#N)cc2Cl)c1O [Example 94, 5-Bromo-3-Tert-Butyl-N-(2-Chloro-4-Cyanophenyl)-2-Hydroxybenzamide]",90%,
20000 nM,"Cc1c(Br)cc(C(C)(C)C)c(O)c1C(=O)Nc1ccccc1C(F)(F)F [Example 96, 3-Bromo-5-Tert-Butyl-6-Hydroxy-2-Methyl-N-(2-Trifluoromethylphenyl)Benzamide]",40%,
1500 nM,"N#CC(C#N)=Cc1c(Br)[nH]c2ccccc12 [Example 97, 2-(2-Bromo-1H-Indol-3-Ylmethylene)Malononitrile]",55%,

# The remaining lines, values behind:
SMILES,EC50 [1],Emax [2],further results
"Cc1[nH]c2ccc([N+](=O)[O-])cc2c1C=C(C#N)C#N [Example 36, 2-(2-Methyl-5-Nitro-1H-Indol-3-Ylmethylene)-Malononitrile]",,,EC50 (24 h): 6350 nM; Emax: 76%
"CC(C)(C)c1cc(/C=C(\C#N)C(=O)Nc2ccc(Cl)cc2)cc(C(C)(C)C)c1O [Example 83, N-(4-Chloro-Phenyl)-2-Cyano-3-(3,5-Di-Tert-Butyl-4-Hydroxy-Phenyl)-Acrylamide]",1100 nM,120%,
"CC(C)(C)c1cc(/C=C(\C#N)S(C)(=O)=O)cc(C(C)(C)C)c1O [Example 84, (E)-3-(3,5-Di-Tert-Butyl-4-Hydroxy-Phenyl)-2-Methanesulfonyl-Acrylonitrile]",1400 nM,,
"CC(C)S(=O)(=O)/C(C#N)=C/c1cc(C(C)(C)C)c(O)c(C(C)(C)C)c1 [Example 88, (E)-3-(3,5-Di-Tert-Butyl-4-Hydroxy-Phenyl)-2-(Propane-2-Sulfonyl)-Acrylonitrile]",500 nM,,
"CC(C)(C)c1cc(/C=C(\C#N)S(=O)(=O)c2cc(Cl)ccc2Cl)cc(C(C)(C)C)c1O [Example 89, 3-(3,5-Di-Tert-Butyl-4-Hydroxy-Phenyl)-2-(2,5-Dichloro-Benzenesulfonyl)-Acrylonitrile]",500 nM,,
"CC(C)(C)c1cc(/C=C(\C#N)S(=O)(=O)c2ccc(Cl)cc2Cl)cc(C(C)(C)C)c1O [Example 90, 3-(3,5-Di-Tert-Butyl-4-Hydroxy-Phenyl)-2-(2,4-Dichloro-Benzenesulfonyl)-Acrylonitrile]",600 nM,,
"CCCCCCS(=O)(=O)/C(C#N)=C/c1cc(C(C)(C)C)c(O)c(C(C)(C)C)c1 [Example 91, 3-(3,5-Di-Tert-Butyl-4-Hydroxy-Phenyl)-2-(Hexane-1-Sulfonyl)-Acrylonitrile]",3800 nM,,
"CC(C)(C)c1cc(/C=C(\C#N)S(=O)(=O)c2cccc(Br)c2)cc(C(C)(C)C)c1O [Example 93, 2-(3-Bromo-Benzenesulfonyl)-3-(3,5-Di-Tert-Butyl-4-Hydroxy-Phenyl)-Acrylonitrile]",100 nM,,

# Source: patent US20040138301A1, “Chemical uncouplers for the treatment of obesity” (priority 2002, published 2004)
